Tested on: PBMCs from healthy volunteers
Assay: HG-U133A baseline gene expression in PBMCs of healthy volunteers (HV), cPLA2 inhibitor in the absence of allergen (no AG)
Type: cell-based, human
Excerpt: PBMCs were stimulated in vitro with a cocktail containing 4 different allergens from house dust mite, ragweed and cat. Recombinant allergens, Der p1, Der f2, Fel d1 (Indoor Biotech, Charlottesville, Va.) and natural ragweed allergen (Allergy Lab, Seattle, Wash.) were selected and screened for endotoxin contamination (LAL Endotoxin Test, Catalog #HIT302, sensitivity, 0.0001 Eu/ml, Cell Sciences, Canton, Mass.). The sensitivity of the subjects was unknown but the allergens were chosen based on the estimate that 80% of allergic individuals are believed to react to one or more of these allergens. Culture medium contained RPMI-1640 (Sigma) with 10% heat inactivated FCS (Sigma St. Louis, Mo.) and 100 unit/mL Penicillin and […] Streptomycin and 0.292 mg/mL Glutamine (GIBCO RL Invitrogen, Carlsbad, Calif.). The final allergen cocktail concentrations in culture medium were: Der p1 and Der f2 (dust mite), 1 mg/ml; Fel d1 (cat), 1.25 mg/ml; ragweed, 125 mg/ml. The total level of endotoxin contamination in culture medium was 0.057 Eu/ml. The cPLA2 inhibitor 4-{3-[1-benzhydryl-5-chloro-2-(2-{[(2,6-dimethylbenzyl)sulfonyl]amino}ethyl)-1H-indol-3-yl]propyl}benzoic acid was used at a concentration of 0.3 μM/ml. Zileuton, a 5-lipoxygenase inhibitor, was added at a concentration of 5 μM. The inhibitory activity of both the cPLA2 inhibitor and Zileuton samples were verified in a human whole blood assay. After 6 days in culture approximately 200 μL of supernatant was removed using an 8-channel pipettor without disturbing the cell pellet and placed into a collection plate for cytokine ELISA assays. To the remaining cell pellet 100 μL of RLT lysis buffer containing 1% beta-mercaptoethanol was added and snap frozen for RNA purification.
RNA was purified using QIA shredders and Rneasy mini kits (Qiagen, Valencia, Calif.). PBMC pellets frozen in RLT lysis buffer containing 1% β-mercaptoethanol were thawed and processed for total RNA isolation using the QIA shredder and RNeasy mini kit. A phenol:chloroform extraction was then performed, and the RNA was repurified using the RNeasy mini kit reagents. Eluted RNA was quantified using a Spectramax96 well plate UV reader (Molecular Devices, Sunnyvale, Calif., USA) monitoring A260/280 OD values. The quality of each RNA sample was assessed by capillary electrophoresis alongside an RNA molecular weight ladder on the Agilent 2100 bioanalyzer (Agilent Technologies, Palo Alto, Calif., USA). RNA samples were assigned quality values of intact (distinct 18S and 28S bands); partially degraded (discernible 18S and 28S bands with presence of low molecular weight bands) or completely degraded (no discernible 18S and 28S bands).
Labeled targets for oligonucleotide arrays were prepared using a modification of the procedure described by Lockhart et al. (Lockhart (1996) Nat. Biotechnol. 14:1675-80). Labeled targets were hybridized to the HG-U133A Affymetrix GeneChip Array as described in the Affymetrix technical manual. Eleven biotinylated control transcripts ranging in abundance from 3 parts per million (ppm) to 100 ppm were spiked into each sample to function as a standard curve (Hill (2001) Genome Biol. 2:RESEARCH0055). GeneChip MAS 5.0 software was used to evaluate the hybridization intensity, compute the signal value for each probe set and make an absent/present call.
GeneChips were required to pass the pre-set quality control criteria that the RNA quality metric required a 5′:3′ ratio. Two asthma subjects were excluded from the study due to failure to meet the RNA quality metric and 2 GeneChips from the group treated with cPLA2a inhibitor were excluded for the same reason. The signal value for each probe set was converted into a frequency value representative of the number of transcripts present in 10^6 transcripts by reference to the standard curve (Hill (2001) Genome Biol. 2:RESEARCH0055). […]

## Cc1cccc(C)c1CS(=O)(=O)NCCc1c(CCCc2ccc(C(=O)O)cc2)c2cc(Cl)ccc2n1C(c1ccccc1)c1ccccc1 [cPLA2 inhibitor, 4-{3-[1-benzhydryl-5-chloro-2-(2-{[(2,6-dimethylbenzyl)sulfonyl]amino}ethyl)-1H-indol-3-yl]propyl}benzoic acid]
Probeset 208723_at, gene USP11
  Fold Change cPLA2 inhibitor vs. no AG HV: 1.191 fold
Probeset 208735_s_at, gene CTDSP2
  Fold Change cPLA2 inhibitor vs. no AG HV: 1.214 fold
Probeset 208881_x_at, gene IDI1
  Fold Change cPLA2 inhibitor vs. no AG HV: 1.288 fold
Probeset 208962_s_at, gene UNK_BE540552
  Fold Change cPLA2 inhibitor vs. no AG HV: 1.667 fold
Probeset 208963_x_at, gene FADS1
  Fold Change cPLA2 inhibitor vs. no AG HV: 1.668 fold
Probeset 208992_s_at, gene STAT3
  Fold Change cPLA2 inhibitor vs. no AG HV: 1.161 fold
Probeset 209417_s_at, gene IFI35
  Fold Change cPLA2 inhibitor vs. no AG HV: 1.367 fold
Probeset 209949_at, gene NCF2
  Fold Change cPLA2 inhibitor vs. no AG HV: 1.229 fold
Probeset 209969_s_at, gene STAT1
  Fold Change cPLA2 inhibitor vs. no AG HV: 1.315 fold
Probeset 210029_at, gene INDO
  Fold Change cPLA2 inhibitor vs. no AG HV: 2.207 fold
Probeset 210146_x_at, gene LILRB2
  Fold Change cPLA2 inhibitor vs. no AG HV: 1.473 fold
Probeset 210176_at, gene TLR1
  Fold Change cPLA2 inhibitor vs. no AG HV: 1.302 fold
Probeset 210495_x_at, gene FN1
  Fold Change cPLA2 inhibitor vs. no AG HV: −16.2745 fold
Probeset 210524_x_at, gene UNK_AF078844
  Fold Change cPLA2 inhibitor vs. no AG HV: 1.984 fold
Probeset 210754_s_at, gene LYN
  Fold Change cPLA2 inhibitor vs. no AG HV: 1.482 fold
Probeset 210784_x_at, gene LILRB3
  Fold Change cPLA2 inhibitor vs. no AG HV: 1.348 fold
Probeset 210962_s_at, gene AKAP9
  Fold Change cPLA2 inhibitor vs. no AG HV: −1.163 fold
Probeset 211133_x_at, gene LILRB3
  Fold Change cPLA2 inhibitor vs. no AG HV: 1.349 fold
Probeset 211135_x_at, gene LILRB3
  Fold Change cPLA2 inhibitor vs. no AG HV: 1.416 fold
Probeset 211456_x_at, gene UNK_AF333388
  Fold Change cPLA2 inhibitor vs. no AG HV: 2.494 fold
Probeset 211661_x_at, gene PTAFR
  Fold Change cPLA2 inhibitor vs. no AG HV: 1.264 fold
Probeset 211719_x_at, gene FN1
  Fold Change cPLA2 inhibitor vs. no AG HV: −18.8559 fold
Probeset 212066_s_at, gene USP34
  Fold Change cPLA2 inhibitor vs. no AG HV: −1.173 fold
Probeset 212185_x_at, gene MT2A
  Fold Change cPLA2 inhibitor vs. no AG HV: 2.359 fold
Probeset 212274_at, gene UNK_AV705559
  Fold Change cPLA2 inhibitor vs. no AG HV: 1.2259 fold
Probeset 212318_at, gene TNPO3
  Fold Change cPLA2 inhibitor vs. no AG HV: 1.195 fold
Probeset 212464_s_at, gene FN1
  Fold Change cPLA2 inhibitor vs. no AG HV: −16.6219 fold
Probeset 212859_x_at, gene MT2A
  Fold Change cPLA2 inhibitor vs. no AG HV: 2.114 fold
Probeset 212907_at, gene SLC30A1
  Fold Change cPLA2 inhibitor vs. no AG HV: 1.527 fold
Probeset 213571_s_at, gene EIF4EL3
  Fold Change cPLA2 inhibitor vs. no AG HV: 1.18 fold
Probeset 213629_x_at, gene MT1F
  Fold Change cPLA2 inhibitor vs. no AG HV: 1.953 fold
Probeset 213716_s_at, gene SECTM1
  Fold Change cPLA2 inhibitor vs. no AG HV: 1.603 fold
Probeset 214038_at, gene UNK_AI984980
  Fold Change cPLA2 inhibitor vs. no AG HV: 2.289 fold
Probeset 214179_s_at, gene NFE2L1
  Fold Change cPLA2 inhibitor vs. no AG HV: 1.302 fold
Probeset 214730_s_at, gene GLG1
  Fold Change cPLA2 inhibitor vs. no AG HV: 1.22 fold
Probeset 215051_x_at, gene AIF1
  Fold Change cPLA2 inhibitor vs. no AG HV: 1.464 fold
Probeset 215223_s_at, gene SOD2
  Fold Change cPLA2 inhibitor vs. no AG HV: 1.584 fold
Probeset 216336_x_at, gene UNK_AL031602
  Fold Change cPLA2 inhibitor vs. no AG HV: 1.748 fold
Probeset 216442_x_at, gene FN1
  Fold Change cPLA2 inhibitor vs. no AG HV: −15.6848 fold
Probeset 216841_s_at, gene SOD2
  Fold Change cPLA2 inhibitor vs. no AG HV: 1.463 fold
Probeset 217165_x_at, gene MT1F
  Fold Change cPLA2 inhibitor vs. no AG HV: 2.496 fold
Probeset 217965_s_at, gene HCNGP
  Fold Change cPLA2 inhibitor vs. no AG HV: 1.185 fold
Probeset 218154_at, gene FLJ12150
  Fold Change cPLA2 inhibitor vs. no AG HV: 1.267 fold
Probeset 218472_s_at, gene PELO
  Fold Change cPLA2 inhibitor vs. no AG HV: 1.163 fold
Probeset 219159_s_at, gene SLAMF7
  Fold Change cPLA2 inhibitor vs. no AG HV: 1.736 fold
Probeset 219519_s_at, gene SN
  Fold Change cPLA2 inhibitor vs. no AG HV: 2.441 fold
Probeset 219788_at, gene PILRA
  Fold Change cPLA2 inhibitor vs. no AG HV: 1.371 fold
Probeset 221165_s_at, gene IL22
  Fold Change cPLA2 inhibitor vs. no AG HV: 1.835 fold
Probeset 221558_s_at, gene LEF1
  Fold Change cPLA2 inhibitor vs. no AG HV: −1.137 fold
Probeset 221581_s_at, gene WBSCR5
  Fold Change cPLA2 inhibitor vs. no AG HV: 1.343 fold
Probeset 222218_s_at, gene PILRA
  Fold Change cPLA2 inhibitor vs. no AG HV: 1.292 fold

— US20090155784A1, “ASSESSMENT OF ASTHMA AND ALLERGEN-DEPENDENT GENE EXPRESSION” (Wyeth, priority 2007, published 2009)
